From US4247712A, “Preservation of aqueous systems with 2-chloro-3-oxobutyramide derivatives” (Givaudan Corporation, priority 1979, dated 1981)
≈ marks a conversion by molar mass, not a printed value.

Assays:
Type in all cases: cell-based
[1] = test system: Aspergillus niger; experiment: General antimicrobial activity, 5-fold serial dilution test in agar (MIC); details: 168 h, 28° C., seven days, growth only at lower concentration of range, read-out: minimum inhibitory concentration (MIC), F1
Description: (§1) General antibacterial and antifungal activity was evaluated by a 5-fold serial dilution test in agar. In this test, compounds were prepared as 6% solutions in dimethylformamide or ethanol. The 6% solution was then 5-fold serially diluted in test tubes to give the desired concentrations when mixed with agar and poured into sterile Petri dishes. Tryptone glucose extract agar was used for the bacterial testing; mildew glucose agar for the fungal testing. The bacterial plates were spot inoculated with 24-hour nutrient broth cultures and incubated at 37° C. for 48 hours. The fungal plates were spot inoculated with spore suspensions and incubated at 28° C. for seven days. At the end of the incubation periods, all plates were examined for growth. The minimum inhibitory concentration (MIC) for each organism is expressed in Table I. In the ranges presented, growth is observed only at the lower concentration.
(§2) The activity is presented in Tabular Form (Table I) using the following key.

[2] = test system: Aspergillus oryzae; experiment: as above; details: 168 h, 28° C., seven days, growth only at lower concentration of range, read-out: minimum inhibitory concentration (MIC), F2
Description: as §1, §2

[3] = test system: Aureobasidium pullulans; experiment: as above; details: 168 h, 28° C., seven days, growth only at lower concentration of range, read-out: minimum inhibitory concentration (MIC), F4
Description: as §1, §2

[4] = test system: Bacillus subtilis; experiment: as above; details: 37° C., 48 hours, growth only at lower concentration of range, read-out: minimum inhibitory concentration (MIC), B5
Description: as §1, §2

[5] = test system: Escherichia coli; experiment: as above; details: 37° C., 48 hours, growth only at lower concentration of range, read-out: minimum inhibitory concentration (MIC), B2
Description: as §1, §2

[6] = test system: Penicillium piscarium; experiment: as above; details: 168 h, 28° C., seven days, growth only at lower concentration of range, read-out: minimum inhibitory concentration (MIC), F3
Description: as §1, §2

[7] = test system: Proteus vulgaris; experiment: as above; details: 37° C., 48 hours, growth only at lower concentration of range, read-out: minimum inhibitory concentration (MIC), B4
Description: as §1, §2

[8] = test system: Pseudomonas aeruginosa; experiment: as above; details: 37° C., 48 hours, growth only at lower concentration of range, read-out: minimum inhibitory concentration (MIC), B3
Description: as §1, §2

[9] = test system: Staphylococcus aureus; experiment: as above; details: 37° C., 48 hours, growth only at lower concentration of range, read-out: minimum inhibitory concentration (MIC), B1
Description: as §1, §2

[10] = test system: Aspergillus niger; experiment: Utility as a cosmetic preservative (cosmetic lotion); details: weekly reinoculation
Description: (§3) The 2-Chloro-3-oxobutyramide derivatives are effective cosmetic preservatives. Two-fold serial dilutions of 6% solutions of the 2-haloacetoacetic acid derivatives in dimethylformamide were added to a cosmetic lotion of the following formulation: |Stearic acid 1.4 g |Arlacel 60 (sorbitan |monostearate) 0.7 g |Tween 20 Polyoxethylene |(20) sorbitan |monostearate 1.6 g |Distilled water 94.0 g The lotions were inoculated with both Pseudomonas aeruginosa and Aspergillus niger and incubated at 28° C. At weekly intervals, the lotions were examined for microorganisms by conventional streak-plate methods or by macroscopic observation. The lotions were then reinoculated with the test organisms and reincubated.

[11] = test system: Pseudomonas aeruginosa; experiment: as above; details: weekly reinoculation
Description: as §3

[12] = test system: Pseudomonas aeruginosa; experiment: Utility in water and oil emulsions (3.3% cutting oil emulsions); details: 28° C., weekly reinoculation, read-out: Minimum Inhibitory Concentration Range
Description: The utility of the 2-chloro-3-oxobutyramide derivatives in water and oil emulsions is illustrated below using a commercially available cutting oil. In running these tests, two-fold serial dilutions of 6% solutions of the compound in dimethylformamide was added to 3.3% cutting oil emulsions. The emulsions were prepared by diluting with water a commercially available cutting oil concentrate. The emulsions were inoculated with a culture of Pseudomonas aeruginosa and incubated at 28° C. on a rotary shaker. At weekly intervals, the emulsions were examined for bacteria by conventional streak-plate methods. The emulsions were then reinoculated with Pseudomonas aeruginosa and reincubated. […] indicate the activity range for that compound.

[13] = test system: broad spectrum of microorganisms including gram positive bacteria, gram negative bacteria and molds; experiment: Antimicrobial activity, general statement in the text

`CC(=O)C(Cl)C(=O)N(C)C` (stereo not shown) [R1=CH3, R2=CH3, 2-chloro-N,N-dimethyl-3-oxobutyramide] gave an MIC [1] of 384 to 1920 µg/mL (≈ 2350 to 11700 µM), an MIC [2] of 384 to 1920 µg/mL (≈ 2350 to 11700 µM) and an MIC [3] of 76.8 to 384 µg/mL (≈ 469 to 2350 µM). For the same compound, the MIC [4] was 384 to 1920 µg/mL (≈ 2350 to 11700 µM), the MIC [5] was 76.8 to 384 µg/mL (≈ 469 to 2350 µM) and the MIC [6] was 384 to 1920 µg/mL (≈ 2350 to 11700 µM). The MIC [7] was 76.8 to 384 µg/mL (≈ 469 to 2350 µM), the MIC [8] was 384 to 1920 µg/mL (≈ 2350 to 11700 µM) and the MIC [9] was 384 to 1920 µg/mL (≈ 2350 to 11700 µM). For the same compound, the “minimum inhibitory concentration effective in preventing microbial growth” value ([10]; Week 1, 28° C.) was 1 (1000-2000 mcg/gm), the “minimum inhibitory concentration effective in preventing microbial growth” value ([10]; Week 2, 28° C.) was 1 (1000-2000 mcg/gm) and the “minimum inhibitory concentration effective in preventing microbial growth” value ([10]; Week 3, 28° C.) was 1 (1000-2000 mcg/gm). The “minimum inhibitory concentration effective in preventing microbial growth” value ([10]; Week 4, 28° C.) was 1 (1000-2000 mcg/gm), the “minimum inhibitory concentration effective in preventing microbial growth” value ([11]; Week 1, 28° C.) was 2 (500-1000 mcg/gm) and the “minimum inhibitory concentration effective in preventing microbial growth” value ([11]; Week 2, 28° C.) was 2 (500-1000 mcg/gm). The “minimum inhibitory concentration effective in preventing microbial growth” value ([11]; Week 3, 28° C.) was 2 (500-1000 mcg/gm), the “minimum inhibitory concentration effective in preventing microbial growth” value ([11]; Week 4, 28° C.) was 2 (500-1000 mcg/gm) and the MIC ([12]; Week 1, 3.3% cutting oil emulsion) was 125 to 500 µg/mL (≈ 764 to 3060 µM). The MIC ([12]; Week 2, 3.3% cutting oil emulsion) was 250 to 500 µg/mL (≈ 1530 to 3060 µM), the MIC ([12]; Week 3, 3.3% cutting oil emulsion) was 250 to 500 µg/mL (≈ 1530 to 3060 µM) and the MIC ([12]; Week 4, 3.3% cutting oil emulsion) was 250 to 500 µg/mL (≈ 1530 to 3060 µM). The “antimicrobial activity (in words)” value [13] was “high level of activity”.
